Where a name gives a salt, the structure may show the parent alone.
Experiments:
[1] = target: HSD17B13 enzyme (Homo sapiens (Human), UniProt Q7Z5P4); experiment: hHSD17B13 IC50 Assay (FAC beta-estradiol), purified protein enzyme activity assay with NAD(P)H-Glo luciferase readout; type: biochemical; conditions: geometric mean, 12 μM FAC beta-estradiol, 500 μM NAD+, read-out: hHSD17B13_IC50 GMean IC50
Procedure: The following protocols may of course be varied by those skilled in the art. hHSD17B13 IC50 Assay (FAC beta-estradiol)
HSD17B13 enzyme inhibition potency of test compounds was determined using a purified protein biochemical enzyme activity assay, using NAD(P)H-Glo luciferase readout (Promega). HSD17B13 enzyme uses the oxidized form of nicotinamide adenine dinucleotide (NAD+) as a cofactor during metabolism of Beta-Estradiol (substrate) to […], while converting NAD+ to the reduced form (NADH). The Promega NAD(P)H-Glo™ assay is a homogeneous bioluminescent assay that generates a light signal from biochemical reactions that contain NADH (or nicotinamide adenine dinucleotide phosphate, NADPH). In the presence of NADH (or NADPH), the enzyme Reductase reduces a proluciferin reductase substrate to form luciferin. Luciferin then is quantified using Ultra-Glo™ Recombinant Luciferase (rLuciferase), and the light signal produced is proportional to the amount of NAD(P)H in the sample. […] The reaction was initiated by the addition of 2 μL/well purified HSD17B13 protein (30 nM FAC in assay buffer). Compound, substrate mix and HSD17B13 protein was incubated in the dark at room temperature for 2 hours before the addition of 3 μL/well NAD(P)H-Glo detection reagent, prepared from luciferase detection reagent and reductase/reductase substrate, as per manufacturer's instructions (Promega, G9061). Detection reagent was incubated in the dark for 1 hour at room temperature before plates were read on the Envision plate reader (Perkin Elmer) using a luminescent protocol. Data expressed as relative luminescent units (RLUs) were then normalized to control wells using Activity Base (IDBS). Zero percent effect (ZPE) was defined as RLUs generated from uninhibited HSD17B13 protein (vehicle control).

[2] = target: wild type human HSD17B13 (Homo sapiens (Human), UniProt Q7Z5P4); experiment: HEK_Beta-Est LCMS_IC50_Tekcel, whole-cell HEK-HSD17B13 inhibition assay, estrone production by LCMS; type: cell-based; conditions: geometric mean, HEK cells stably expressing wild type human HSD17B13, 25 μM FAC beta-estradiol, read-out: HEK_Beta-Est LCMS_IC50—Tekcel GMean IC50
In short: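 HEK cells expressing wild-type human HSD17B13 were preincubated with compound for 1 hour at 37° C, then the beta-estradiol/NAD+ reaction ran for 2 hours at 37° C. Estrone formed was quantified by LCMS as product area ratio and normalized to uninhibited vehicle-control wells.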

HSD17B13 enzyme, sequence (Q7Z5P4 20-300): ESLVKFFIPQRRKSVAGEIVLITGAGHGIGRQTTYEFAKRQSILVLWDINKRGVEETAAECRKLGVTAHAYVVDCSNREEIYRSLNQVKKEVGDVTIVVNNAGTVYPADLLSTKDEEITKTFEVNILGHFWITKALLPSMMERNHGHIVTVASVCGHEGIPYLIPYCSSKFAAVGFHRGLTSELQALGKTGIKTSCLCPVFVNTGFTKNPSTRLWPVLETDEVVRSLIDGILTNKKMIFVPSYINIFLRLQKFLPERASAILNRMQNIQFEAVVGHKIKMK
wild type human HSD17B13, sequence (Q7Z5P4 20-300): as above

SMILES	IC50 [1] [nM]	IC50 [2] [nM]
O=C(NC[C@H]1CC[C@H](n2cc3ccc(-c4cncnc4)cc3n2)CC1)c1cc(F)c(O)c(F)c1F [Example 9, 2,3,5-Trifluoro-4-hydroxy-N-({(1r,4r)-4-[6-(pyrimidin-5-yl)-2H-indazol-2-yl]cyclohexyl}methyl)benzamide]	13	170
O=C(NC[C@H]1CC[C@H](n2cc3ccc(-c4cnn(C5CCOCC5)c4)cc3n2)CC1)c1cc(F)c(O)c(F)c1 [Example 12, 3,5-Difluoro-4-hydroxy-N-{[(1r,4r)-4-{6-[1-(oxan-4-yl)-1H-pyrazol-4-yl]-2H-indazol-2-yl}cyclohexyl]methyl}benzamide]	11	290
O=C(NC[C@H]1CC[C@H](c2noc(-c3ccc(C(F)(F)F)cn3)n2)CC1)c1cc(F)c(O)c(F)c1 [Example 13, 3,5-Difluoro-4-hydroxy-N-{[(1r,4r)-4-{5-[5-(trifluoromethyl)pyridin-2-yl]-1,2,4-oxadiazol-3-yl}cyclohexyl]methyl}benzamide]	17	470
COc1ccc(-c2noc([C@]34CC[C@](CNC(=O)c5cc(F)c(O)c(F)c5F)(CC3)CC4)n2)nn1 [Example 15, 2,3,5-Trifluoro-4-hydroxy-N-({4-[3-(6-methoxypyridazin-3-yl)-1,2,4-oxadiazol-5-yl]bicyclo[2.2.2]octan-1-yl}methyl)benzamide]	7.1	220
O=C(NC[C@H]1CC[C@H](n2cc3ccc(F)cc3n2)CC1)c1cc(F)c(O)c(F)c1 [Example 16, 3,5-Difluoro-N-{[(1r,4r)-4-(6-fluoro-2H-indazol-2-yl)cyclohexyl]methyl}-4-hydroxybenzamide, ammonium salt]	17	310
CC(C)(C)C(=O)Nc1ccc(-c2noc([C@H]3CC[C@H](CNC(=O)c4cc(F)c(O)c(F)c4)CC3)n2)nn1 [Example 17, N-{[(1r,4r)-4-{3-[6-(2,2-Dimethylpropanamido)pyridazin-3-yl]-1,2,4-oxadiazol-5-yl}cyclohexyl]methyl}-3,5-difluoro-4-hydroxybenzamide, ammonium salt]	12	270
O=C(NC[C@H]1CC[C@H](n2cc(-c3ccc4nccnc4c3)nn2)CC1)c1cc(F)c(O)c(F)c1 [Example 18, 3,5-Difluoro-4-hydroxy-N-({(1r,4r)-4-[4-(quinoxalin-6-yl)-1H-1,2,3-triazol-1-yl]cyclohexyl}methyl)benzamide]	18	420
Cn1ccc(-c2ccc3c(c2)CN([C@H]2CC[C@H](CNC(=O)c4cc(F)c(O)c(F)c4)CC2)C3=O)n1 [Example 20, 3,5-Difluoro-4-hydroxy-N-({(1r,4r)-4-[5-(1-methyl-1H-pyrazol-3-yl)-1-oxo-1,3-dihydro-2H-isoindol-2-yl]cyclohexyl}methyl)benzamide]	16	490
O=C(NC[C@H]1CC[C@H](n2cc3ccccc3n2)CC1)c1cc(F)c(O)c(F)c1 [Example 22, 3,5-difluoro-4-hydroxy-N-{[(1r,4r)-4-(2H-indazol-2-yl)cyclohexyl]methyl} benzamide]	20	390
O=C(NC[C@H]1CC[C@H](n2cc3ccc(-c4ncccn4)cc3n2)CC1)c1cc(F)c(O)c(F)c1 [Example 24, 3,5-difluoro-4-hydroxy-N-({(1r,4r)-4-[6-(pyrimidin-2-yl)-2H-indazol-2-yl]cyclohexyl}methyl) benzamide]	14	120
O=C(NC[C@H]1CC[C@H](n2cc3ccc(Cl)cc3n2)CC1)c1cc(F)c(O)c(F)c1F [Example 25, N-{[(1r,4r)-4-(6-chloro-2H-indazol-2-yl)cylohexyl]methyl}-2,3,5-trifluoro-4-hydroxybenzamide]	14	300
O=C(NC[C@H]1CC[C@H](n2cc3ccc(-c4ncccn4)cc3n2)CC1)c1cc(F)c(O)c(F)c1F [Example 27, 2,3,5-trifluoro-4-hydroxy-N-({(1r,4r)-4-[6-(pyrimidin-2-yl)-2H-indazol-2-yl]cyclohexyl}methyl) benzamide]	12	180
O=C(NC[C@H]1CC[C@H](n2cc3ccc(-c4cnccn4)cc3n2)CC1)c1cc(F)c(O)c(F)c1F [Example 28, 2,3,5-trifluoro-4-hydroxy-N-({(1r,4r)-4-[6-(pyrazin-2-yl)-2H-indazol-2-yl]cyclohexyl}methyl)benzamide]	8.7	170
O=C(NC[C@H]1CC[C@H](n2cc3cc(OCC4CC4)ncc3n2)CC1)c1cc(F)c(O)c(F)c1 [Example 32, N-({(1r,4r)-4-[5-(cyclopropyl-methoxy)-2H-pyrazolo[3,4-c]pyridin-2-yl]cyclohexyl}methyl)-3,5-difluoro-4-hydroxybenzamide, ammonium salt]	25	400
Cn1cc(-c2ccc3cn([C@H]4CC[C@H](CNC(=O)c5cc(F)c(O)c(F)c5)CC4)nc3c2)c(C(F)F)n1 [Example 34, N-{[(1r,4r)-4-{6-[3-(difluoromethyl)-1-methyl-1H-pyrazol-4-yl]-2H-indazol-2-yl}cyclohexyl]methyl}-3,5-difluoro-4-hydroxybenzamide]	4.3	310
Cn1cc(-c2ccc3cn([C@H]4CC[C@H](CNC(=O)c5cc(F)c(O)c(F)c5)CC4)nc3c2)c(C2CC2)n1 [Example 35, N-({(1r,4r)-4-[6-(3-cyclopropyl-1-methyl-1H-pyrazol-4-yl)-2H-indazol-2-yl]cyclohexyl}methyl)-3,5-difluoro-4-hydroxybenzamide]	10	350
O=C(NC[C@H]1CC[C@H](n2cc3ccc(-c4cnn5c4OCC5)cc3n2)CC1)c1cc(F)c(O)c(F)c1 [Example 37, N-({(1r,4r)-4-[6-(2,3-dihydropyrazolo[5,1-b][1,3]oxazol-7-yl)-2H-indazol-2-yl]cyclohexyl}methyl)-3,5-difluoro-4-hydroxybenzamide]	8.4	150
O=C(NC[C@H]1CC[C@H](n2cc3ccc(-c4cnn(C5CCOC5)c4)cc3n2)CC1)c1cc(F)c(O)c(F)c1 (stereo partly drawn) [Example 38, 3,5-difluoro-4-hydroxy-N-{[(1r,4r)-4-{6-[1-(oxolan-3-yl)-1H-pyrazol-4-yl]-2H-indazol-2-yl}cyclohexyl]methyl} benzamide]	4.6	150
Cc1c(-c2ccc3cn([C@H]4CC[C@H](CNC(=O)c5cc(F)c(O)c(F)c5)CC4)nc3c2)cnn1C [Example 39, N-({(1r,4r)-4-[6-(1,5-dimethyl-1H-pyrazol-4-yl)-2H-indazol-2-yl]cyclohexyl}methyl)-3,5-difluoro-4-hydroxybenzamide]	5.7	250
CC(C)n1cc(-c2ccc3cn([C@H]4CC[C@H](CNC(=O)c5cc(F)c(O)c(F)c5)CC4)nc3c2)cn1 [Example 40, 3,5-difluoro-4-hydroxy-N-{[(1r,4r)-4-{6-[1-(propan-2-yl)-1H-pyrazol-4-yl]-2H-indazol-2-yl}cyclohexyl]methyl} benzamide]	4.3	160
CN1CCn2ncc(-c3ccc4cn([C@H]5CC[C@H](CNC(=O)c6cc(F)c(O)c(F)c6)CC5)nc4c3)c21 [Example 41, 3,5-difluoro-4-hydroxy-N-({(1r,4r)-4-[6-(1-methyl-2,3-dihydro-1H-imidazo[1,2-b]pyrazol-7-yl)-2H-indazol-2-yl]cyclohexyl}methyl) benzamide]	21	440
COc1nn(C)cc1-c1ccc2cn([C@H]3CC[C@H](CNC(=O)c4cc(F)c(O)c(F)c4)CC3)nc2c1 [Example 42, 3,5-difluoro-4-hydroxy-N-({(1r,4r)-4-[6-(3-methoxy-1-methyl-1H-pyrazol-4-yl)-2H-indazol-2-yl]cyclohexyl}methyl) benzamide]	11	260
O=C(NC[C@H]1CC[C@H](n2cc3ccc(-c4cnn(C(F)F)c4)cc3n2)CC1)c1cc(F)c(O)c(F)c1 [Example 44, N-{[(1r,4r)-4-{6-[1-(difluoromethyl)-1H-pyrazol-4-yl]-2H-indazol-2-yl}cyclohexyl]methyl}-3,5-difluoro-4-hydroxybenzamide]	< 2.6	92
O=C(NC[C@H]1CC[C@H](n2cc3ccc(-c4cnn(C5COC5)c4)cc3n2)CC1)c1cc(F)c(O)c(F)c1 [Example 45, 3,5-difluoro-4-hydroxy-N-{[(1r,4r)-4-{6-[1-(oxetan-3-yl)-1H-pyrazol-4-yl]-2H-indazol-2-yl}cyclohexyl]methyl} benzamide]	5.4	220

Reference: US20240150334A1, “HSD17B13 INHIBITORS AND/OR DEGRADERS” (Pfizer Inc., priority 2022, published 2024)
